These results are taken from article doi:10.1101/2025.03.31.646177v2, “Target engagement studies and kinetic live-cell degradation assays enable the systematic characterization of HDAC6 PROTACs” (biorxiv, 2025).

The target in assay [1] is T1, HDAC6-HiBiT (endogenously tagged HDAC6 in HeLa HDAC6-HiBiT LgBiT cells) (Homo sapiens, UniProt Q9UBN7).
T1 sequence (Q9UBN7 1-1215): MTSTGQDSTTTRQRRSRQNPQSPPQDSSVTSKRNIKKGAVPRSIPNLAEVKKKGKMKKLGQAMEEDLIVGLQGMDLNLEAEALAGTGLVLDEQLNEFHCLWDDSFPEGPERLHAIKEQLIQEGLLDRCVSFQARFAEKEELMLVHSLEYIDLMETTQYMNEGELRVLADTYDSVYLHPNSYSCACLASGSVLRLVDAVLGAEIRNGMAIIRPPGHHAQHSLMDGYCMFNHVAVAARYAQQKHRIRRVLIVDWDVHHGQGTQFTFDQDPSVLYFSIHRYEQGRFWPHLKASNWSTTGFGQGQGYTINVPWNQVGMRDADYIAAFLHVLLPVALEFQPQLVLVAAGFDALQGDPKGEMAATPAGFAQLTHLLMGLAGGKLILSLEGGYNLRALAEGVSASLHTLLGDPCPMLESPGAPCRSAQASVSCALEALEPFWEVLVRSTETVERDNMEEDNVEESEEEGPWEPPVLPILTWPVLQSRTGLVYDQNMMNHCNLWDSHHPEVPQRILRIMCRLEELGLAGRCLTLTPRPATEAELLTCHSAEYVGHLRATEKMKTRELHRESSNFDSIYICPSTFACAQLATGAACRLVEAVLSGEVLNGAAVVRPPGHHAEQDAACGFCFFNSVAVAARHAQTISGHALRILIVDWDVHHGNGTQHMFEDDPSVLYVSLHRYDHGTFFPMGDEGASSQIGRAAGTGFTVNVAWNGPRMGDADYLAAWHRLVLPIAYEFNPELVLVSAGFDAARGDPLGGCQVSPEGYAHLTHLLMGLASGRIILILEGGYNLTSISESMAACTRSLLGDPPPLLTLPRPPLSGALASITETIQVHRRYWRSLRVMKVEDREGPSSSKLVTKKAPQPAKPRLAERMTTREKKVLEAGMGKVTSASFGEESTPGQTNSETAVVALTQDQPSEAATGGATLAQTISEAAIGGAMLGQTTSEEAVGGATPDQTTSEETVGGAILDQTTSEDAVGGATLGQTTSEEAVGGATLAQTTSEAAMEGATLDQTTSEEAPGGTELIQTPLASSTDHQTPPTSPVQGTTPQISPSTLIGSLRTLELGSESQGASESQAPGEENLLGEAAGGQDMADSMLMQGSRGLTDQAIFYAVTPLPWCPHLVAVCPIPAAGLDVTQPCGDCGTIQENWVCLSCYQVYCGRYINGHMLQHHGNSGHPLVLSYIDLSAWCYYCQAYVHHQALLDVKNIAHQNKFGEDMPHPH
The assay can be described thus: NanoBRET saturation binding. The assay is classed as cell-based.

Assay [2] addresses T2, HDAC6 (human recombinant) (Homo sapiens, UniProt Q9UBN7).
T2 sequence (Q9UBN7 1-1215): T1 sequence (Q9UBN7 1-1215)
In words: fluorogenic HDAC assay (ZMAL substrate, trypsin-coupled). The assay is classed as biochemical. The text has this:
fluorogenic HDAC assay (ZMAL substrate, trypsin-coupled) on HDAC6 (human recombinant)

The target of assay [3] is HDAC1 (human recombinant) (Homo sapiens, UniProt Q13547). The assay is described as above. The assay is classed as biochemical. The text has this: fluorogenic HDAC assay (ZMAL substrate, trypsin-coupled) on HDAC1 (human recombinant)
Chain of HDAC1 (human recombinant) (Q13547 whole entry): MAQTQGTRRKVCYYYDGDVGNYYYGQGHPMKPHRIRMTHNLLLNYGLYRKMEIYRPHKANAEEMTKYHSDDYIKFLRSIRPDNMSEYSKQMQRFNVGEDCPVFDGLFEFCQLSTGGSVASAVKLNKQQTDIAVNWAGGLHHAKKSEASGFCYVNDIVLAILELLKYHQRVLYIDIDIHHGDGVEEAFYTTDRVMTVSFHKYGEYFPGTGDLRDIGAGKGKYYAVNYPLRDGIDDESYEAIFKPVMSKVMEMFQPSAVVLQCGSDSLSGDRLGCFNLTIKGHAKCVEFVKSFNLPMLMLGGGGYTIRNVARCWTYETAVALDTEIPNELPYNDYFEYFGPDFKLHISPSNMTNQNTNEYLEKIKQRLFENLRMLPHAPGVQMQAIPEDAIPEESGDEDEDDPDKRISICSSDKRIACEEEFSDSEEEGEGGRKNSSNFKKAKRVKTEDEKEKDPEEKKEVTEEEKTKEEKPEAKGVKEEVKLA
The target of assay [4] is HDAC2 (human recombinant) (Homo sapiens, UniProt Q92769). The assay is described as above. It is filed as biochemical. The text has this:
fluorogenic HDAC assay (ZMAL substrate, trypsin-coupled) on HDAC2 (human recombinant)

For assay [5], the target named is T1, HDAC6-HiBiT (endogenously tagged HDAC6 in HeLa HDAC6-HiBiT LgBiT cells). The assay can be described thus: NanoBRET competition with tracer […]. It is filed as cell-based.

Chain of HDAC2 (human recombinant) (Q92769 whole entry): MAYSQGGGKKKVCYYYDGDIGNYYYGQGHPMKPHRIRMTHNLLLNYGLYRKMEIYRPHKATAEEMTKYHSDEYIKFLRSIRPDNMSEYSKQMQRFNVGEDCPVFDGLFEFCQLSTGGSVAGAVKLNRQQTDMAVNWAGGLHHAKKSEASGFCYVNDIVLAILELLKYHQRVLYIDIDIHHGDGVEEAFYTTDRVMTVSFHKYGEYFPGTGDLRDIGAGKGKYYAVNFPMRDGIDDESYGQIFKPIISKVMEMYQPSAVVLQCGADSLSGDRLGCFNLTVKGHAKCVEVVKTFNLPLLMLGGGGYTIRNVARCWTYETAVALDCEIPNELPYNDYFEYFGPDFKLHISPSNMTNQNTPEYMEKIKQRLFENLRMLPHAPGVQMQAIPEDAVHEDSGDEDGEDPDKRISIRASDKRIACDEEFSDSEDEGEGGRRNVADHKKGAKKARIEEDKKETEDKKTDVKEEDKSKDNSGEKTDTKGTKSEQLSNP

Compound `CN(C)c1ccc2c(-c3ccc(C(=O)NCCCn4cc(COc5ccc(C(=O)NCCCCCCC(=O)NO)cc5)nn4)cc3C(=O)[O-])c3ccc(=[N+](C)C)cc-3oc2c1` [compound 5, 2-[6-(Dimethylamino)-3-(dimethyliminio)-3H-xanthen-9-yl]-5-[(3-{4-[(4-{[7-(hydroxyamino)-7-oxoheptyl]carbamoyl}phenoxy)methyl]-1H-1,2,3-triazol-1-yl}propyl)carbamoyl]benzoate] returned a Kd in assay [1] of 80 ± 11 nM. Also, the values for the IC50 in assay [2], in assay [3] and in assay [4] were 9.1 ± 0.1 nM, 130 ± 20 nM and 220 ± 10 nM, respectively.
Consider `FC(F)c1nnc(-c2cnc(NCc3ccccc3)nc2)o1` [BK1], for which, in assay [5], the IC50 was found to be 75 ± 30 nM.
The compound `CN(C)c1ccc2c(-c3ccc(C(=O)NCCOCCOCCOCCn4cc(COc5ccc(C(=O)NCCCCCCC(=O)NO)cc5)nn4)cc3C(=O)[O-])c3ccc(N(C)C)cc3[o+]c2c1` [compound 4, tracer 4] yielded a Kd in assay [1] of 120 ± 40 nM. The results for the concentration for half-maximal inhibition (IC50) in assay [2], in assay [3] and in assay [4] were 18 ± 1 nM, 200 ± 20 nM and 340 ± 40 nM, respectively.
